{"source": "patent US9328138B2", "about": "(priority 2011, dated 2016)", "key": {"[1]": {"molecular_target": "T1, HCV genotype 1b (BK) NS3 modified enzyme with a R155K mutation (Hepatitis C virus genotype 1b, UniProt P26663, R1181K)", "T1 construct": "HCV genotype 1b (BK) NS3 modified enzyme", "assay": "HCV NS3 protease time-resolved fluorescence (TRF) assay, genotype 1b R155K", "type": "biochemical", "conditions": "Ki 1b R155K", "outline": "(§1)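 Inhibitor titrations are mixed with NS3/NS4A in pH 7.5 HEPES buffer containing 10 mM DTT and 15% glycerol for 10 min before substrate (25 nM final) is added. After 6 h at room temperature, delayed fluorescence is read and fitted to a four-parameter curve for IC50.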"}, "[2]": {"molecular_target": "HCV NS3 protease genotype 3a (3A-1) (Hepatitis C virus genotype 3a, UniProt Q81258)", "assay": "HCV NS3 protease time-resolved fluorescence (TRF) assay, genotype 3a", "type": "biochemical", "conditions": "Ki 3a", "outline": "as §1"}, "[3]": {"conditions": "genotype 1b (BK) NS3 R155K, single value"}}}
{"smiles": "C=C[C@@H]1C[C@]1(NC(=O)[C@@H]1C[C@@H]2CN1C(=O)[C@H](C(C)(C)C)NC(=O)O[C@@H]1CCC[C@H]1CCCCCc1c(nc3ccccc3c1OCCN1CCOCC1)O2)C(=O)NS(=O)(=O)C1(COC)CC1", "note": "[Example 61, (3aR,7S,10S,12R,24aR)-7-tert-butyl-N-[(1R,2S)-2-ethenyl-1-({[1-(methoxymethyl)cyclopropyl]sulfonyl}carbamoyl)cyclopropyl]-19-[2-(morpholin-4-yl)ethoxy]-5,8-dioxo-1,2,3,3a,5,6,7,8,11,12,20,21,22,23,24,24a-hexadecahydro-10H-9,12-methanocyclopenta[18,19][1,10,3,6]dioxadiazacyclononadecino[11,12-b]quinoline-10-carboxamide]", "values": [{"measurement": "Ki", "setting": "[1]; [3]", "value": 0.7, "unit": "nM"}, {"measurement": "Ki", "setting": "[2]", "value": 20, "unit": "nM"}]}
{"smiles": "C=C[C@@H]1C[C@]1(NC(=O)[C@@H]1C[C@@H]2CN1C(=O)[C@H](C(C)(C)C)NC(=O)O[C@@H]1C[C@H]1CCCCCc1c(nc3cc(C(C)C)ccc3c1OCCCN1C[C@@H]3C[C@H]1CO3)O2)C(=O)NS(=O)(=O)C1(C)CC1", "note": "[Example 164, (1aR,5S,8S,10R,22aR)-5-tert-butyl-N-[(1R,2S)-2-ethenyl-1-{[(1-methylcyclopropyl)sulfonyl]carbamoyl}cyclopropyl]-17-{3-[(1S,4S)-2-oxa-5-azabicyclo[2.2.1]hept-5-yl]propoxy}-3,6-dioxo-14-(propan-2-yl)-1,1a,3,4,5,6,9,10,18,19,20, 21,22,22a-tetradecahydro-8H-7,10-methanocyclopropa[18,19][1,10,3,6] dioxadiazacyclononadecino [11,12-b]quinoline-8-carboxamide]", "values": [{"measurement": "Ki", "setting": "[1]; [3]", "value": 0.096, "unit": "nM"}, {"measurement": "Ki", "setting": "[2]", "value": 1.2, "unit": "nM"}]}
{"smiles": "C=C[C@@H]1C[C@]1(NC(=O)[C@@H]1C[C@@H]2CN1C(=O)[C@H](C(C)(C)C)NC(=O)O[C@@H]1C[C@H]1CCCCCc1c(nc3ccccc3c1OCCCCN1CCOCC1)O2)C(=O)NS(=O)(=O)C1(C)CC1", "note": "[Example 150, (1aR,5S,8S,10R,22aR)-5-tert-butyl-N-[(1R,2S)-2-ethenyl-1-{[(1-methylcyclopropyl)sulfonyl]carbamoyl}cyclopropyl]-17-[4-(morpholin-4-yl)butoxy]-3,6-dioxo-1,1a,3,4,5,6,9,10,18,19,20,21, 22,22a-tetradecahydro-8H-7,10-methanocyclopropa[18,19][1,10,3,6] dioxadiazacyclononadecino [11,12-b]quinoline-8-carboxamide]", "values": [{"measurement": "Ki", "setting": "[1]; [3]", "value": 0.12, "unit": "nM"}, {"measurement": "Ki", "setting": "[2]", "value": 1.3, "unit": "nM"}]}
{"smiles": "C=C[C@@H]1C[C@]1(NC(=O)[C@@H]1C[C@@H]2CN1C(=O)[C@H](C(C)(C)C)NC(=O)O[C@@H]1C[C@H]1CCCCCc1c(nc3ccccc3c1OCCCN(CC(O)c1ccc(O)c(O)c1)C(C)C)O2)C(=O)NS(=O)(=O)C1(C)CC1", "note": "(stereo partly drawn) [Example 188, (1aR,5S,8S,10R,22aR)-5-tert-butyl-17-(3-{[2-(3,4-dihydroxyphenyl)-2-hydroxyethyl](propan-2-yl)amino}propoxy)-N-[(1R,2S)-2-ethenyl-1-{[(1-methylcyclopropyl)sulfonyl]carbamoyl}cyclopropyl]-3,6-dioxo-1,1a,3,4,5,6,9,10,18,19,20, 21,22,22a-tetradecahydro-8H-7,10-methanocyclopropa[18,19][1,10,3,6] dioxadiazacyclononadecino[11,12-b] quinoline-8-carboxamide]", "values": [{"measurement": "Ki", "setting": "[1]; [3]", "value": 0.033, "unit": "nM"}, {"measurement": "Ki", "setting": "[2]", "value": 0.85, "unit": "nM"}]}
{"smiles": "C=C[C@@H]1C[C@]1(NC(=O)[C@@H]1C[C@@H]2CN1C(=O)[C@H](C(C)(C)C)NC(=O)O[C@@H]1C[C@H]1CCCCCc1c(nc3ccccc3c1OCC1CCN(C)C1)O2)C(=O)NS(=O)(=O)C1(C)CC1", "note": "(stereo partly drawn) [Example 141, (1aR,5S,8S,10R,22aR)-5-tert-butyl-N-[(1R,2S)-2-ethenyl-1-{[(1-methylcyclopropyl)sulfonyl]carbamoyl}cyclopropyl]-17-[(1-methylpyrrolidin-3-yl)methoxy]-3,6-dioxo-1,1a,3,4,5,6,9,10,18,19,20,21,22,22a-tetradecahydro-8H-7,10-methanocyclopropa[18,19][1,10,3,6] dioxadiazacyclononadecino [11,12-b]quinoline-8-carboxamide]", "values": [{"measurement": "Ki", "setting": "[1]; [3]", "value": 0.066, "unit": "nM"}, {"measurement": "Ki", "setting": "[2]", "value": 0.33, "unit": "nM"}]}
{"smiles": "C=C[C@@H]1C[C@]1(NC(=O)[C@@H]1C[C@@H]2CN1C(=O)[C@H](C1CCCC1)NC(=O)O[C@@H]1CCC[C@H]1CC/C=C/Cc1c(nc3ccccc3c1OCCCN)O2)C(=O)NS(=O)(=O)C1CC1", "note": "[Example 94, (3aR,7S,10S,12R,21E,24aS)-19-(3-aminopropoxy)-7-cyclopentyl-N-{(1R,2S)-1-[(cyclopropylsulfonyl)carbamoyl]-2-ethenylcyclopropyl}-5,8-dioxo-1,2,3,3a,5,6,7,8,11,12,20,23,24,24a-tetradecahydro-10H-9,12-methanocyclopenta[18,19][1,10,3,6]dioxadiazacyclononadecino[11,12-b]quinoline-10-carboxamide]", "values": [{"measurement": "Ki", "setting": "[1]; [3]", "value": 0.093, "unit": "nM"}, {"measurement": "Ki", "setting": "[2]", "value": 0.59, "unit": "nM"}]}
{"smiles": "CC1(S(=O)(=O)NC(=O)[C@@]23C[C@H]2/C=C\\CCCCC[C@@H]2NC(=O)O[C@@H]4C[C@H]4CCC/C=C/c4c(nc5ccccc5c4OCCCN4CCCCC4)O[C@@H]4C[C@@H](C(=O)N3)N(C4)C2=O)CC1", "note": "[Example 302, (1aR,5S,11Z,12aS,13aR,16S,19R,27E,31aR)—N-[(1-methylcyclopropyl)sulfonyl]-3,15,33-trioxo-26-[3-(piperidin-1-yl)propoxy]-1,1a,3,4,5,6,7,8,9,10,12a,13,15,16,18,19,29,30,31,31a-icosahydro-5,17:16,19-dimethanodicyclopropa[12,13:28,29][1,20,3,14,17]dioxatriazacyclononacosino[21,22-b]quinoline-13a(14H)-carboxamide]", "values": [{"measurement": "Ki", "setting": "[1]; [3]", "value": 0.16, "unit": "nM"}, {"measurement": "Ki", "setting": "[2]", "value": 2, "unit": "nM"}]}
{"smiles": "C=C[C@@H]1C[C@]1(NC(=O)[C@@H]1C[C@@H]2CN1C(=O)[C@H](C(C)(C)C)NC(=O)O[C@@H]1C[C@H]1CCCCCc1c(nc3ccccc3c1OC1C3COCC1CN(CC)C3)O2)C(=O)NS(=O)(=O)C1(C)CC1", "note": "(stereo partly drawn) [Example 260, (1aR,5S,8S,10R,22aR)-5-tert-butyl-N-[(1R,2S)-2-ethenyl-1-{[(1-methylcyclopropyl)sulfonyl]carbamoyl}cyclopropyl]-17-[(7-ethyl-3-oxa-7-azabicyclo[3.3.1]non-9-yl)oxy]-3,6-dioxo-1,1a,3,4,5,6,9,10,18,19,20,21,22,22a-tetradecahydro-8H-7,10-methanocyclopropa[18,19][1,10,3,6]dioxadiazacyclononadecino[11,12-b]quinoline-8-carboxamide]", "values": [{"measurement": "Ki", "setting": "[1]; first of two values printed in the cell (not explained)", "value": 0.019, "unit": "nM"}, {"measurement": "Ki", "setting": "[1]; second of two values printed in the cell (not explained)", "value": 0.093, "unit": "nM"}, {"measurement": "Ki", "setting": "[2]", "value": 2.4, "unit": "nM"}]}
{"smiles": "C=C[C@@H]1C[C@]1(NC(=O)[C@@H]1C[C@@H]2CN1C(=O)[C@H](C(C)(C)C)NC(=O)O[C@@H]1C[C@H]1CCCCCc1c(nc3ccccc3c1OCCN1CCOCC1)O2)C(=O)NS(=O)(=O)C1(C)CC1", "note": "[Example 113, (1aR,5S,8S,10R,22aR)-5-tert-butyl-N-[(1R,2S)-2-ethenyl-1-{[(1-methylcyclopropyl)sulfonyl]carbamoyl}cyclopropyl]-17-[2-(morpholin-4-yl)ethoxy]-3,6-dioxo-1,1a,3,4,5,6,9,10,18,19,20,21,22,22a-tetradecahydro-8H-7,10-methanocyclopropa[18,19][1,10,3,6]dioxadiazacyclononadecino[11,12-b]quinoline-8-carboxamide]", "values": [{"measurement": "Ki", "setting": "[1]; [3]", "value": 0.09, "unit": "nM"}, {"measurement": "Ki", "setting": "[2]", "value": 1.6, "unit": "nM"}]}
{"smiles": "C=C[C@@H]1C[C@]1(NC(=O)[C@@H]1C[C@@H]2CN1C(=O)[C@H](C(C)(C)C)NC(=O)O[C@@H]1C[C@H]1CCCCCc1c(nc3ccccc3c1OCCCNC(C)COC)O2)C(=O)NS(=O)(=O)C1(C)CC1", "note": "(stereo partly drawn) [Example 179, (1aR,5S,8S,10R,22aR)-5-tert-butyl-N-[(1R,2S)-2-ethenyl-1-{[(1-methylcyclopropyl)sulfonyl]carbamoyl}cyclopropyl]-17-{3-[(1-methoxypropan-2-yl)amino]propoxy}-3,6-dioxo-1,1a,3,4,5,6,9,10,18,19,20,21,22,22a-tetradecahydro-8H-7,10-methanocyclopropa[18,19][1,10,3,6] dioxadiazacyclononadecino[11,12-b] quinoline-8-carboxamide]", "values": [{"measurement": "Ki", "setting": "[1]; [3]", "value": 0.034, "unit": "nM"}, {"measurement": "Ki", "setting": "[2]", "value": 0.58, "unit": "nM"}]}
{"smiles": "C=C[C@@H]1C[C@]1(NC(=O)[C@@H]1C[C@@H]2CN1C(=O)[C@H](C(C)(C)C)NC(=O)O[C@@H]1C[C@H]1CCCCCc1c(nc3cc(C(F)(F)F)ccc3c1OCCN1CCOCC1)O2)C(=O)NS(=O)(=O)C1(C)CC1", "note": "[Example 129, (1aR,5S,8S,10R,22aR)-5-tert-butyl-N-[(1R,2S)-2-ethenyl-1-{[(1-methylcyclopropyl)sulfonyl]carbamoyl}cyclopropyl]-17-[2-(morpholin-4-yl)ethoxy]-3,6-dioxo-14-(trifluoromethyl)-1,1a,3,4,5,6,9,10,18,19,20,21,22,22a-tetradecahydro-8H-7,10-methanocyclopropa[18,19][1,10,3,6] dioxadiazacyclononadecino[11,12-b] quinoline-8-carboxamide]", "values": [{"measurement": "Ki", "setting": "[1]; [3]", "value": 0.51, "unit": "nM"}, {"measurement": "Ki", "setting": "[2]", "value": 8.7, "unit": "nM"}]}
{"smiles": "C=C[C@@H]1C[C@]1(NC(=O)[C@@H]1C[C@@H]2CN1C(=O)[C@H](C(C)(C)C)NC(=O)O[C@@H]1C[C@H]1CCCCCc1c(nc3cc(C)ccc3c1OCCCN1CCOCC1)O2)C(=O)NS(=O)(=O)C1(C)CC1", "note": "[Example 147, (1aR,S,8S,10R,22aR)-5-tert-butyl-N-[(1R,2S)-2-ethenyl-1-{[(1-methylcyclopropyl)sulfonyl]carbamoyl}cyclopropyl]-14-methyl-17-[3-(morpholin-4-yl)propoxy]-3,6-dioxo-1,1a,3,4,5,6,9, 10,18,19,20,21,22,22a-tetradecahydro-8H-7,10-methanocyclopropa[18,19] [1,10,3,6]dioxadiaza cyclononadecino[11,12-b] quinoline-8-carboxamide]", "values": [{"measurement": "Ki", "setting": "[1]; [3]", "value": 0.26, "unit": "nM"}, {"measurement": "Ki", "setting": "[2]", "value": 2.2, "unit": "nM"}]}
